# Where two headings read alike, the source gives them in different places.
# Legend:
# SARS-CoV-2 nsp13 [1] = molecular target: T1, SARS-CoV-2 nsp13 (Severe acute respiratory syndrome coronavirus 2, UniProt P0DTD1); settings: for impact of DTT on inhibition of unwinding activity: presence or absence of 1 mM DTT
# SARS-CoV-2 nsp13 [2] = molecular target: T1, SARS-CoV-2 nsp13; test: biochemical; assay type: biochemical; settings: for ATPase, percentage of control at the highest tested compound concentration: without BSA/TCEP
# SARS-CoV-2 = test: microbe, parasite or virus in culture; assay type: cell-based; settings: for EC50: Severe acute respiratory syndrome coronavirus 2, Vero, read-out: SARS-CoV-2 EC50
# SARS-CoV-2 nsp13 [3] = molecular target: T1, SARS-CoV-2 nsp13; test: biochemical
# SARS-CoV-2 nsp13 [4] = molecular target: T1, SARS-CoV-2 nsp13; settings: read-out: NTPase activity IC50; cited from earlier work
# in vitro = assay type: cell-based, African green monkey; settings: African green monkey, with CP100356, 2 μM
# Vero E6-GFP cells = test: in vitro; assay type: cell-based, African green monkey; settings: read-out: Vero E6-GFP CC50; cell viability, 2 μM CP100356
# [5] = ATPase IC50, without BSA/TCEP, no nucleic acid
# [6] = unwinding IC50, without BSA/TCEP
# [7] = ATPase BSA-TCEP-polyrA IC50, BSA, TCEP and poly(A) ssRNA
# [8] = unwinding BSA-TCEP IC50, 10 μg/mL BSA and 180 μM TCEP
Compound,"unwinding, percentage of control at the highest tested compound concentration (SARS-CoV-2 nsp13 [1]; without BSA/TCEP) [%]","ATPase, percentage of control at the highest tested compound concentration (SARS-CoV-2 nsp13 [2]) [%]",EC50 (SARS-CoV-2) [µM],"SARS-CoV-2, percentage of control at the highest tested compound concentration (SARS-CoV-2)",IC50 (SARS-CoV-2 nsp13 [2]; [5]) [µM],IC50 (SARS-CoV-2 nsp13 [3]; [6]) [µM],CC50 at 72 h (in vitro) [µM],viability at 72 h (in vitro) [%],other results
kaempferol-3-O-rutinoside,71,95,,,,,,,
COc1ccc(-c2cc(=O)c3c(O)cc(O)cc3o2)cc1O [diosmetin],,92,> 100,>100 (100%),,,,,
O=C(O)c1cc(O)c(O)c(O)c1 [gallic acid],89,92,,,> 30,> 30,,,
COc1ccc2cc1Oc1ccc(cc1)C[C@H]1c3c(cc4c(c3Oc3cc5c(cc3OC)CCN(C)[C@@H]5C2)OCO4)CCN1C [cepharanthine],,,,,,,,,IC50 (SARS-CoV-2 nsp13 [4]): 400 µM
O=c1c(O)c(-c2cc(O)c(O)c(O)c2)oc2cc(O)cc(O)c12 [myricetin],,87,> 100,>100 (100%),,,> 100,100,impact of DTT on inhibition of unwinding activity (SARS-CoV-2 nsp13 [1]): equally active in the presence and absence of DTT
O=c1c(O)c(-c2ccc(O)c(O)c2)oc2cc(O)cc(O)c12 [quercetin],,,> 100,,,,> 100,100,
O=c1c(O)c(-c2ccc(O)cc2)oc2cc(O)cc(O)c12 [kaempferol],,83,> 100,>100 (100%),> 30,,> 100,100,impact of DTT on inhibition of unwinding activity (SARS-CoV-2 nsp13 [1]): equally active in the presence and absence of DTT; mode of inhibition of unwinding activity (SARS-CoV-2 nsp13 [1]; versus ATP): noncompetitively versus ATP; unwinding IC50 range in words (SARS-CoV-2 nsp13 [1]; without BSA/TCEP): nanomolar range; IC50 (SARS-CoV-2 nsp13 [2]; [7]): > 30 µM; IC50 (SARS-CoV-2 nsp13 [3]; [8]): 19 ± 2.1 µM
COc1cc(O)c2c(=O)c(-c3ccc(O)cc3)coc2c1 [prunetin],,97,> 100,>100 (100%),> 30,11.5 ± 1.7,> 100,100,IC50 (SARS-CoV-2 nsp13 [2]; [7]): > 30 µM; IC50 (SARS-CoV-2 nsp13 [3]; [8]): > 100 µM
C[C@@H]1O[C@@H](OC[C@H]2O[C@@H](Oc3c(-c4ccc(O)c(O)c4)oc4cc(O)cc(O)c4c3=O)[C@H](O)[C@@H](O)[C@@H]2O)[C@H](O)[C@H](O)[C@H]1O [rutin],75,96,,,,,,,
COc1c(O)cc(O)c2c(=O)cc(-c3ccccc3)oc12 [wogonin],,95,,,> 30,24.9 ± 5.5,,,IC50 (SARS-CoV-2 nsp13 [2]; [7]): > 30 µM; IC50 (SARS-CoV-2 nsp13 [3]; [8]): 74.9 ± 8.3 µM
Oc1ccc(/C=C/c2cc(O)cc(O)c2)cc1 [resveratrol],64,98,,,> 30,> 30,,,
"CC(C)C[C@H](NC(=O)OCc1ccccc1)C(=O)N[C@@H](CC1CCNC1=O)C(O)S(=O)(=O)O (stereo partly shown) [GC376, reference compound]",,,,,,,,,CC50 (Vero E6-GFP cells): > 100 µM
O=c1cc(-c2ccccc2)oc2cc(O)c(O)c(O)c12 [baicalein],,94,> 100,>100 (100%),,,> 100,100,
O=c1cc(-c2ccc(O)cc2)oc2cc(O[C@@H]3O[C@H](CO)[C@@H](O)[C@H](O)[C@H]3O)cc(O)c12 [apigenin-7-O-glucoside],100,99,,,> 30,> 30,,,
O=C1c2c(O)cc(O)cc2O[C@H](c2cc(O)c(O)c(O)c2)[C@H]1O [dihydro-myricetin],,100,,,,,,,

# Reference: PMC9003574 (ACS Pharmacology & Translational Science, 2022)
